Measurements: patent US9024027B2, “Derivatives of 1-phenyl-2-pyridinyl alkyl alcohols as phosphodiesterase inhibitors” (Chiesi Farmaceutici S.p.A., priority 2011, dated 2015)
pIC50: −log10 of the molar value. Where a name gives a salt, the structure may show the parent alone.

System: LPS-induced TNF-α release in peripheral blood mononuclear cells (PBMCs)
Experiment: In vitro determination of PDE4 inhibitory activity in the PBMCs assay (LPS-induced TNF-α release)
Assay type: cell-based
Details: PBMC; human PBMCs, LPS 3 ng/ml, 18 hours; read-out: PDE4 inhibition (IC50, 50% inhibition of LPS-induced TNF-α release)
Experimental: The assay, which is based on the known inhibitory activity exerted by PDE4 inhibitors on the lipopolyshaccarides (LPS)-induced tumour necrosis factor-alpha (TNF-α release in peripheral blood mononuclear cells (PBMCs), was performed according to a method previously described (Hatzelmann A et al., J. Pharmacol. Exp. Ther., 2001; 297:267-279; and Draheim R et al., J. Pharmacol. Exp. Ther., 2004; 308:555-563, both of which are incorporated herein by reference in their entireties. Cryopreserved human PBMCs, (100 μl/well) were incubated in 96-well plates (10^5 cells/well), for 30 minutes, in the presence or absence (50 microl) of the test compounds whose concentrations ranged from 10^−12 M to 10^−6 M or from 10^−13 M to 10^−7 M. Subsequently, LPS (3 ng/ml) was added. After 18 hours of incubation at 37° C. in a humidified incubator under an atmosphere of 95% air and 5% CO2, culture medium was collected and TNF-α measured by ELISA.
The results of the tested compounds, representatives of the invention, expressed as mean±95% confidence limits of the molar concentration of the test compound producing 50% inhibition of LPS-induced TNF-α release (IC50) are shown in the following Table: […]

Row | Compound | pIC50
1 | CS(=O)(=O)N(CCN1CCCC1)c1ccc2c(c1)C(=O)N(CC(=O)O[C@@H](Cc1c(Cl)c[n+]([O-])cc1Cl)c1ccc(OC(F)F)c(OCC3CC3)c1)C2=O [Compound 183] | > 9.00
2 | CS(=O)(=O)N(CCN1CCOCC1)c1cccc2c1ccn2CC(=O)O[C@@H](Cc1c(Cl)c[n+]([O-])cc1Cl)c1ccc(OC(F)F)c(OCC2CC2)c1 [Compound 233, (S)-3,5-dichloro-4-(2-(3-(cyclopropylmethoxy)-4-(difluoromethoxy)phenyl)-2-(2-(4-(N-(2-morpholinoethyl)methylsulfonamido)-1H-indol-1-yl)acetoxy)ethyl)pyridine 1-oxide] | 8.00 to 9.00
3 | CS(=O)(=O)Nc1cccc2c1ccn2CC(=O)O[C@@H](Cc1c(Cl)c[n+]([O-])cc1Cl)c1ccc(OC(F)F)c(OCC2CC2)c1 [Compound 84, (S)-3,5-dichloro-4-(2-(3-(cyclopropylmethoxy)-4-(difluoromethoxy)phenyl)-2-(2-(4-(methylsulfonamido)-1H-indol-1-yl)acetoxy)-ethyl)pyridine 1-oxide] | > 9.00
4 | COc1ccc2c(ccn2CC(=O)O[C@@H](Cc2c(Cl)c[n+]([O-])cc2Cl)c2ccc(OC(F)F)c(OCC3CC3)c2)c1 [Compound 45, (S)-3,5-dichloro-4-(2-(3-(cyclopropylmethoxy)-4-(difluoromethoxy)phenyl)-2-(2-(5-methoxy-1H-indol-1-yl)acetoxy)ethyl)pyridine 1-oxide] | > 9.00
5 | CS(=O)(=O)N(CCN1CCSCC1)c1ccc2c(c1)C(=O)N(CC(=O)O[C@@H](Cc1c(Cl)c[n+]([O-])cc1Cl)c1ccc(OC(F)F)c(OCC3CC3)c1)C2=O [Compound 215] | > 9.00
6 | COc1cc2c(cc1OC)CN(CC(=O)O[C@@H](Cc1c(Cl)c[n+]([O-])cc1Cl)c1ccc(OC(F)F)c(OCC3CC3)c1)CC2 [Compound 105, (S)-3,5-dichloro-4-(2-(3-(cyclopropylmethoxy)-4-(difluoromethoxy)phenyl)-2-(2-(6,7-dimethoxy-3,4-dihydroisoquinolin-2(1H)-yl)acetoxy)ethyl)pyridine 1-oxide] | > 9.00
7 | COc1cccc2c1C(=O)N(CC(=O)O[C@@H](Cc1c(Cl)c[n+]([O-])cc1Cl)c1ccc(OC(F)F)c(OCC3CC3)c1)C2=O [Compound 68, (S)-3,5-dichloro-4-(2-(3-(cyclopropylmethoxy)-4-(difluoromethoxy)phenyl)-2-(2-(4-methoxy-1,3-dioxoisoindolin-2-yl)acetoxy)-ethyl)pyridine 1-oxide] | > 9.00
8 | O=C(CN1C(=O)Cc2ccccc2C1=O)O[C@@H](Cc1c(Cl)c[n+]([O-])cc1Cl)c1ccc(OC(F)F)c(OCC2CC2)c1 [Compound 263, (S)-3,5-dichloro-4-(2-(3-(cyclopropylmethoxy)-4-(difluoromethoxy)phenyl)-2-(2-(1,3-dioxo-3,4-dihydroisoquinolin-2(1H)-yl)acetoxy)ethyl)pyridine 1-oxide] | 8.00 to 9.00
9 | CS(=O)(=O)Nc1cccc2c1C(=O)N(CC(=O)O[C@@H](Cc1c(Cl)c[n+]([O-])cc1Cl)c1ccc(OC(F)F)c(OCC3CC3)c1)C2=O [Compound 162, (S)-3,5-dichloro-4-(2-(3-(cyclopropylmethoxy)-4-(difluoromethoxy)phenyl)-2-(2-(4-(methylsulfonamido)-1,3-dioxoisoindolin-2-yl)acetoxy)ethyl)pyridine 1-oxide] | > 9.00
10 | CS(=O)(=O)N(CCN1CCCCC1)c1ccc2c(c1)C(=O)N(CC(=O)O[C@@H](Cc1c(Cl)c[n+]([O-])cc1Cl)c1ccc(OC(F)F)c(OCC3CC3)c1)C2=O [Compound 189, (S)-3,5-dichloro-4-(2-(3-(cyclopropylmethoxy)-4-(difluoromethoxy)phenyl)-2-(2-(1,3-dioxo-5-(N-(2-(piperidin-1-yl)ethyl)methylsulfonamido)isoindolin-2-yl)acetoxy)ethyl)pyridine 1-oxide] | < 8.00
11 | O=C(Cn1ccc2ccccc21)O[C@@H](Cc1c(Cl)c[n+]([O-])cc1Cl)c1ccc(OC(F)F)c(OCC2CC2)c1 [Compound 14, (S)-4-(2-(2-(1H-indol-1-yl)acetoxy)-2-(3-(cyclopropylmethoxy)-4-(difluoromethoxy)phenyl)ethyl)-3,5-dichloropyridine 1-oxide] | > 9.00
12 | CS(=O)(=O)Nc1cn(CC(=O)O[C@@H](Cc2c(Cl)c[n+]([O-])cc2Cl)c2ccc(OC(F)F)c(OCC3CC3)c2)c2ccccc12 [Compound 93, (S)-3,5-dichloro-4-(2-(3-(cyclopropylmethoxy)-4-(difluoromethoxy)phenyl)-2-(2-(3-(methylsulfonamido)-1H-indol-1-yl)acetoxy)ethyl)pyridine 1-oxide] | 8.00 to 9.00
13 | CS(=O)(=O)N(CCN1CCOCC1)c1ccc2c(c1)CC(=O)N2CC(=O)O[C@@H](Cc1c(Cl)c[n+]([O-])cc1Cl)c1ccc(OC(F)F)c(OCC2CC2)c1 [Compound 243, (S)-3,5-dichloro-4-(2-(3-(cyclopropylmethoxy)-4-(difluoromethoxy)phenyl)-2-(2-(5-(N-(2-morpholinoethyl)methylsulfonamido)-2-oxoindolin-1-yl)acetoxy)ethyl)pyridine 1-oxide] | > 9.00
14 | CS(=O)(=O)Nc1ccc2c(c1)C(=O)C(=O)N2CC(=O)O[C@@H](Cc1c(Cl)c[n+]([O-])cc1Cl)c1ccc(OC(F)F)c(OCC2CC2)c1 [Compound 99, (S)-3,5-dichloro-4-(2-(3-(cyclopropylmethoxy)-4-(difluoromethoxy)phenyl)-2-(2-(5-(methylsulfonamido)-2,3-dioxoindolin-1-yl)acetoxy)ethyl)pyridine 1-oxide] | 8.00 to 9.00
15 | O=C(CN1C(=O)C(=O)c2cc([N+](=O)[O-])ccc21)O[C@@H](Cc1c(Cl)c[n+]([O-])cc1Cl)c1ccc(OC(F)F)c(OCC2CC2)c1 [Compound 26] | < 8.00
16 | O=C(CN1C(=O)c2ccccc2C1=O)O[C@H](Cc1c(Cl)c[n+]([O-])cc1Cl)c1ccc(OC(F)F)c(OCC2CC2)c1 [Compound 29] | < 8.00
17 | COc1cc2ccn(CC(=O)O[C@@H](Cc3c(Cl)c[n+]([O-])cc3Cl)c3ccc(OC(F)F)c(OCC4CC4)c3)c2cc1OC [Compound 54] | 8.00 to 9.00
18 | CS(=O)(=O)N(CCN1CCOCC1)c1ccc2c(ccn2CC(=O)O[C@@H](Cc2c(Cl)c[n+]([O-])cc2Cl)c2ccc(OC(F)F)c(OCC3CC3)c2)c1 [Compound 230, (S)-3,5-dichloro-4-(2-(3-(cyclopropylmethoxy)-4-(difluoromethoxy)phenyl)-2-(2-(5-(N-(2-morpholinoethyl)methylsulfonamido)-1H-indol-1-yl)acetoxy)ethyl)pyridine 1-oxide hydrochloride] | > 9.00
19 | CS(=O)(=O)N(CCN1CCOCC1)c1ccc2c(c1)C(=O)N(CC(=O)O[C@@H](Cc1c(Cl)c[n+]([O-])cc1Cl)c1ccc(OC(F)F)c(OCC3CC3)c1)C2=O [Compound 182, (S)-3,5-dichloro-4-(2-(3-(cyclopropylmethoxy)-4-(difluoromethoxy)phenyl)-2-(2-(5-(N-(2-morpholinoethyl)methylsulfonamido)-1,3-dioxoisoindolin-2-yl)acetoxy)ethyl)pyridine 1-oxide 2,2,2 trifluoroacetic acid salt] | > 9.00
20 | CC1(C)c2ccccc2S(=O)(=O)N1CC(=O)O[C@@H](Cc1c(Cl)c[n+]([O-])cc1Cl)c1ccc(OC(F)F)c(OCC2CC2)c1 [Compound 35, (S)-3,5-dichloro-4-(2-(3-(cyclopropylmethoxy)-4-(difluoromethoxy)phenyl)-2-(2-(3,3-dimethyl-1,1-dioxidobenzo[d]isothiazol-2(3H)-yl)acetoxy)ethyl)pyridine 1-oxide] | 8.00 to 9.00
21 | O=C(CN1C(=O)c2ccc(NO)cc2C1=O)O[C@@H](Cc1c(Cl)c[n+]([O-])cc1Cl)c1ccc(OC(F)F)c(OCC2CC2)c1 [Compound 169, (S)-3,5-dichloro-4-(2-(3-(cyclopropylmethoxy)-4-(difluoromethoxy)phenyl)-2-(2-(5-(hydroxyamino)-1,3-dioxoisoindolin-2-yl)acetoxy)ethyl)pyridine 1-oxide] | > 9.00
22 | O=C(Cn1ccc2cc(O)ccc21)O[C@@H](Cc1c(Cl)c[n+]([O-])cc1Cl)c1ccc(OC(F)F)c(OCC2CC2)c1 [Compound 42, (S)-3,5-dichloro-4-(2-(3-(cyclopropylmethoxy)-4-(difluoromethoxy)phenyl)-2-(2-(5-hydroxy-1H-indol-1-yl)acetoxy)ethyl)pyridine 1-oxide] | > 9.00
23 | COc1ccnc(CN(c2ccc3c(c2)C(=O)N(CC(=O)O[C@@H](Cc2c(Cl)c[n+]([O-])cc2Cl)c2ccc(OC(F)F)c(OCC4CC4)c2)C3=O)S(C)(=O)=O)c1 [Compound 194] | 8.00 to 9.00
24 | O=C(Cn1c(=O)c2ccccc2n(CCN2CCOCC2)c1=O)O[C@@H](Cc1c(Cl)c[n+]([O-])cc1Cl)c1ccc(OC(F)F)c(OCC2CC2)c1 [Compound 39] | > 9.00
25 | O=C(CN1C(=O)C(=O)c2ccccc21)O[C@@H](Cc1c(Cl)c[n+]([O-])cc1Cl)c1ccc(OC(F)F)c(OCC2CC2)c1 [Compound 25] | > 9.00
26 | CN1CCN(CCN(c2ccc3c(c2)C(=O)N(CC(=O)O[C@@H](Cc2c(Cl)c[n+]([O-])cc2Cl)c2ccc(OC(F)F)c(OCC4CC4)c2)C3=O)S(C)(=O)=O)CC1 [Compound 213, (S)-3,5-Dichloro-4-(2-(3-(cyclopropylmethoxy)-4-(difluoromethoxy)-phenyl)-2-(2-(5-(N-(2-(4-methylpiperazin-1-yl)ethyl)methylsulfonamido)-1,3-dioxoisoindolin-2-yl)acetoxy)ethyl)pyridine 1-oxide] | > 9.00
